Legend:
Experiment in all cases: KinomeScan kinase panel
Type in all cases: binding
[1] = biological target: T1, MEK2 (Homo sapiens, UniProt P36507)
T1 construct: purchased DiscoveRx Corporation (KinomeScan)
How it was run: (§1)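 Broad-panel profiling: KinomeScan, 442 wild-type and mutant kinases, each exposed to compound at 1000 nM.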

[2] = biological target: T2, JAK1(JH2domain-pseudokinase) (Homo sapiens, UniProt P23458)
T2 construct: JAK1(JH2domain-; purchased DiscoveRx Corporation (KinomeScan)
How it was run: as §1

[3] = biological target: T3, GCN2(kin.dom.2.S808G) (Homo sapiens, UniProt Q9P2K8, S808G)
T3 construct: GCN2(kin.dom.2.S808G); purchased DiscoveRx Corporation (KinomeScan)
How it was run: as §1

[4] = biological target: T4, SNARK (Homo sapiens, UniProt Q9H093)
T4 construct: purchased DiscoveRx Corporation (KinomeScan)
How it was run: as §1

[5] = biological target: T5, RPS6KA4(kin.Dom.2-C-termimal) (Homo sapiens, UniProt O75676)
T5 construct: kin.Dom.2; purchased DiscoveRx Corporation
How it was run: as §1

[6] = biological target: T6, SGK3 (Homo sapiens, UniProt Q96BR1)
T6 construct: purchased DiscoveRx Corporation (KinomeScan)
How it was run: as §1

[7] = biological target: T7, IGF1R (Homo sapiens, UniProt P08069)
T7 construct: purchased DiscoveRx Corporation (KinomeScan)
How it was run: as §1

[8] = biological target: T8, TNK1 (Homo sapiens, UniProt Q13470)
T8 construct: purchased DiscoveRx Corporation (KinomeScan)
How it was run: as §1

[9] = biological target: T9, AURKB (Homo sapiens, UniProt Q96GD4)
T9 construct: purchased DiscoveRx Corporation (KinomeScan)
How it was run: as §1

[10] = biological target: T10, MLK3 (Homo sapiens, UniProt Q16584)
T10 construct: purchased DiscoveRx Corporation (KinomeScan)
How it was run: as §1

[11] = biological target: T11, MAP4K3 (Homo sapiens, UniProt Q8IVH8)
T11 construct: purchased DiscoveRx Corporation (KinomeScan)
How it was run: as §1

[12] = biological target: T12, PKN1 (Homo sapiens, UniProt Q16512)
T12 construct: purchased DiscoveRx Corporation (KinomeScan)
How it was run: as §1

[13] = biological target: T13, PCTK1 (Homo sapiens, UniProt Q00536)
T13 construct: purchased DiscoveRx Corporation (KinomeScan panel)
How it was run: as §1

[14] = biological target: T14, PLK3 (Homo sapiens, UniProt Q9H4B4)
T14 construct: purchased DiscoveRx Corporation (KinomeScan)
How it was run: as §1

[15] = biological target: T15, CSNK1G1 (Homo sapiens, UniProt Q9HCP0)
T15 construct: purchased DiscoveRx Corporation (KinomeScan)
How it was run: as §1

[16] = biological target: T16, EPHA1 (Homo sapiens, UniProt P21709)
T16 construct: purchased DiscoveRx Corporation (KinomeScan)
How it was run: as §1

[17] = biological target: T17, IKK-epsilon (Homo sapiens, UniProt Q14164)
T17 construct: purchased DiscoveRx Corporation (KinomeScan)
How it was run: as §1

[18] = biological target: T18, AURKC (Homo sapiens, UniProt Q9UQB9)
T18 construct: purchased DiscoveRx Corporation (KinomeScan)
How it was run: as §1

[19] = biological target: T19, PFTK (Homo sapiens, UniProt O94921)
T19 construct: purchased DiscoveRx Corporation (KinomeScan)
How it was run: as §1

[20] = biological target: T20, ABL1(T315I)-phosphorylated (Homo sapiens, UniProt P00519, T315I)
T20 construct: purchased DiscoveRx Corporation (KinomeScan)
How it was run: as §1

[21] = biological target: T21, TXK (Homo sapiens, UniProt P42681)
T21 construct: purchased DiscoveRx Corporation (KinomeScan)
How it was run: as §1

[22] = biological target: T22, PRKD1 (Homo sapiens, UniProt Q15139)
T22 construct: purchased DiscoveRx Corporation (KinomeScan)
How it was run: as §1

[23] = biological target: T23, MET(M1250T) (Homo sapiens, UniProt P08581, M1250T)
T23 construct: purchased DiscoveRx Corporation (KinomeScan)
How it was run: as §1

[24] = biological target: T24, BTK (Homo sapiens, UniProt Q06187)
T24 construct: purchased DiscoveRx Corporation (KinomeScan)
How it was run: as §1

[25] = biological target: T25, ERK2 (Homo sapiens, UniProt P28482)
T25 construct: purchased DiscoveRx Corporation (KinomeScan)
How it was run: as §1

[26] = biological target: T26, TLK2 (Homo sapiens, UniProt Q86UE8)
T26 construct: purchased DiscoveRx Corporation (KinomeScan)
How it was run: as §1

[27] = biological target: T27, NEK7 (Homo sapiens, UniProt Q8TDX7)
T27 construct: purchased DiscoveRx Corporation (KinomeScan panel)
How it was run: as §1

[28] = biological target: T28, EPHA4 (Homo sapiens, UniProt P54764)
T28 construct: purchased DiscoveRx Corporation (KinomeScan)
How it was run: as §1

[29] = biological target: T29, BMPR2 (Homo sapiens, UniProt Q13873)
T29 construct: purchased DiscoveRx Corporation (KinomeScan)
How it was run: as §1

[30] = biological target: T30, MST4 (Homo sapiens, UniProt Q9P289)
T30 construct: purchased DiscoveRx Corporation (KinomeScan)
How it was run: as §1

[31] = biological target: T31, MYLK (Homo sapiens, UniProt Q15746)
T31 construct: purchased DiscoveRx Corporation (KinomeScan)
How it was run: as §1

[32] = biological target: T32, MST1 (Homo sapiens, UniProt Q13043)
T32 construct: purchased DiscoveRx Corporation (KinomeScan)
How it was run: as §1

[33] = biological target: T33, PAKC-beta (Homo sapiens, UniProt P22694)
T33 construct: purchased DiscoveRx Corporation (KinomeScan)
How it was run: as §1

[34] = biological target: T34, MAK (Homo sapiens, UniProt P20794)
T34 construct: purchased DiscoveRx Corporation (KinomeScan)
How it was run: as §1

[35] = biological target: T35, CSNK1D (Homo sapiens, UniProt P48730)
T35 construct: purchased DiscoveRx Corporation (KinomeScan)
How it was run: as §1

T32 sequence (Q13043 whole entry): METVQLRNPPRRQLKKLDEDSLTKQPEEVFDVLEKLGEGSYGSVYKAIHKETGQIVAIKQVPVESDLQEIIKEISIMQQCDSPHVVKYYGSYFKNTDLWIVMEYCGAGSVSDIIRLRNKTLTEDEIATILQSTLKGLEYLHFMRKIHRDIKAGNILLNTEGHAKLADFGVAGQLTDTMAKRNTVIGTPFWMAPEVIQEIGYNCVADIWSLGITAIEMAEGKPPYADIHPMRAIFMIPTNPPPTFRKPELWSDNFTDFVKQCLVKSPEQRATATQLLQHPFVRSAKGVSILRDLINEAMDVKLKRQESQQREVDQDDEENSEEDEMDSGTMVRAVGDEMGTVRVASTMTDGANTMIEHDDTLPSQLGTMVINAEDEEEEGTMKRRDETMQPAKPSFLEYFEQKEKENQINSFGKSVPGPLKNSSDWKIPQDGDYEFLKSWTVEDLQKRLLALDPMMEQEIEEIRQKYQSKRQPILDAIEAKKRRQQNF
T4 sequence (Q9H093 whole entry): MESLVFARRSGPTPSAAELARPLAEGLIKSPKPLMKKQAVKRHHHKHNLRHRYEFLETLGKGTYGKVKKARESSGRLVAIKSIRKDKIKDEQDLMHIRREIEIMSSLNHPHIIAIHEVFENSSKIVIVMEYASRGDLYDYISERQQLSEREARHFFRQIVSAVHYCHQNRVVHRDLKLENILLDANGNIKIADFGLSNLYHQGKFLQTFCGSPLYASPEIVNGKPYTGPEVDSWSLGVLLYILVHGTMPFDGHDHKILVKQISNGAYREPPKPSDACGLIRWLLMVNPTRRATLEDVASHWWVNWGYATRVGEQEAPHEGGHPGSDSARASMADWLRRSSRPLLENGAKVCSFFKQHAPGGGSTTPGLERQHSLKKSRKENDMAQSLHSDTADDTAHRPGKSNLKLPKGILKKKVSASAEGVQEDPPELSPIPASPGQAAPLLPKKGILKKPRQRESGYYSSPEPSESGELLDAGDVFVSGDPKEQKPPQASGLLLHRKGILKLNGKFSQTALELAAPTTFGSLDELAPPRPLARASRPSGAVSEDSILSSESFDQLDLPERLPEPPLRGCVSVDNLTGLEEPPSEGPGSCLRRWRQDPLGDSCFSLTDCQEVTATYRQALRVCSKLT
T21 sequence (P42681 whole entry): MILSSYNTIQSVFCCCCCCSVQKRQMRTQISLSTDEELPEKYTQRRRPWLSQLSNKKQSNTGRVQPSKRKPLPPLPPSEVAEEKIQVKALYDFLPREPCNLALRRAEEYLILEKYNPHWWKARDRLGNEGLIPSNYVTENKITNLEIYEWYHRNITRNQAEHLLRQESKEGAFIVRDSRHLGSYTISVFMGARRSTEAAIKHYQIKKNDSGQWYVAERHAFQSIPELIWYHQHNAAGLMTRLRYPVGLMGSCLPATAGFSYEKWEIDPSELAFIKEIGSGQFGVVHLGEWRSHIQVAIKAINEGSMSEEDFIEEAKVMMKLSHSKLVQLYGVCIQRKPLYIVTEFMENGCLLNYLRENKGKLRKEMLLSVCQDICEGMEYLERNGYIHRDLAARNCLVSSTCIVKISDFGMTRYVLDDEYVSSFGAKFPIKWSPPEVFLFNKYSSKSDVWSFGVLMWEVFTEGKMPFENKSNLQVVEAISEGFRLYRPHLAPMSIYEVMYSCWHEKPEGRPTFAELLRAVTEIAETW
T12 sequence (Q16512 whole entry): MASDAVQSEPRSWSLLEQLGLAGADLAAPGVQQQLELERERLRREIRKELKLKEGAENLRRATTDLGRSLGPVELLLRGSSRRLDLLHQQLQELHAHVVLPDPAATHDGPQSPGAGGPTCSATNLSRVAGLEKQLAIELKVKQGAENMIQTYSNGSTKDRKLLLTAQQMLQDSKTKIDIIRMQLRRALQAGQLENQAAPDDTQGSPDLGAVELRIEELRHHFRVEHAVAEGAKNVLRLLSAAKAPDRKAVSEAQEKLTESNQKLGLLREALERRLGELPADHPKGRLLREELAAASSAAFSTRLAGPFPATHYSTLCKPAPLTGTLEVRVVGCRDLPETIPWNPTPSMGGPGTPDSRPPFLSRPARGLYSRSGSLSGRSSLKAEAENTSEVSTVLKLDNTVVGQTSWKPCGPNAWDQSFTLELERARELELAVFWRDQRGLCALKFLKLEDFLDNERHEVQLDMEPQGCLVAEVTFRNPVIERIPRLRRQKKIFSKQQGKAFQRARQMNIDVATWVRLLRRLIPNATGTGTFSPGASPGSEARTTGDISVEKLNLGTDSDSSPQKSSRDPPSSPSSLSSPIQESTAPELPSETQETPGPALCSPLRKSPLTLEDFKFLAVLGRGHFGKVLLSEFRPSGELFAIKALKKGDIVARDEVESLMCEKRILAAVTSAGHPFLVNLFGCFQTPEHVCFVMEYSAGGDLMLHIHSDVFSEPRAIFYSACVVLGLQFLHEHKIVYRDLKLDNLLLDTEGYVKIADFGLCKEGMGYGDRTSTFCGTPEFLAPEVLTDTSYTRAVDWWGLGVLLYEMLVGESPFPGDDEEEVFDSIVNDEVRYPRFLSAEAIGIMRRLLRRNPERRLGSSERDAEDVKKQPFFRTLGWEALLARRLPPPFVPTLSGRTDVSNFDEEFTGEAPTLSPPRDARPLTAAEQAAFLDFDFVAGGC
T10 sequence (Q16584 whole entry): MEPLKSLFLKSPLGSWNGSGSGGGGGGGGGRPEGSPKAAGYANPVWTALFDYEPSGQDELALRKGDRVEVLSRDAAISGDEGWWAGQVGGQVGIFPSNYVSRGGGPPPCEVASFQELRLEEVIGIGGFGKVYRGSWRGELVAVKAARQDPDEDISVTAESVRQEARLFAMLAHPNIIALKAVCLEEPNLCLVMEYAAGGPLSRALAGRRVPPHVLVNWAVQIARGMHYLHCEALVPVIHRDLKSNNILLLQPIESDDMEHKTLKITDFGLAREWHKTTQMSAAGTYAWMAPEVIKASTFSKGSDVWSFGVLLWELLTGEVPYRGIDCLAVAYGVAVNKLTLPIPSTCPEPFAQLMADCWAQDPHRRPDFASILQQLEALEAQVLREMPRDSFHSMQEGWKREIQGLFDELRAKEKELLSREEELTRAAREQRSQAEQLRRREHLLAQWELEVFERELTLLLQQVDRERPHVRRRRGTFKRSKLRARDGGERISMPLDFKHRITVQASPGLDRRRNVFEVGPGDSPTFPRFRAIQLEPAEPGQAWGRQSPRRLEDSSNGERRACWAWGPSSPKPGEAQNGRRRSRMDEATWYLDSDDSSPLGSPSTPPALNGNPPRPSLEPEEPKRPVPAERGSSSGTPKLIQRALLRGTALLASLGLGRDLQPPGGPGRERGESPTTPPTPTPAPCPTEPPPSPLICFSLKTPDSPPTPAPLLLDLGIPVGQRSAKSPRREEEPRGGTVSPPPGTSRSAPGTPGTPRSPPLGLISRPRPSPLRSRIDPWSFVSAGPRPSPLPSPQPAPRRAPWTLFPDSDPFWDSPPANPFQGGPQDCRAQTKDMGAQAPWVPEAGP
T15 sequence (Q9HCP0 whole entry): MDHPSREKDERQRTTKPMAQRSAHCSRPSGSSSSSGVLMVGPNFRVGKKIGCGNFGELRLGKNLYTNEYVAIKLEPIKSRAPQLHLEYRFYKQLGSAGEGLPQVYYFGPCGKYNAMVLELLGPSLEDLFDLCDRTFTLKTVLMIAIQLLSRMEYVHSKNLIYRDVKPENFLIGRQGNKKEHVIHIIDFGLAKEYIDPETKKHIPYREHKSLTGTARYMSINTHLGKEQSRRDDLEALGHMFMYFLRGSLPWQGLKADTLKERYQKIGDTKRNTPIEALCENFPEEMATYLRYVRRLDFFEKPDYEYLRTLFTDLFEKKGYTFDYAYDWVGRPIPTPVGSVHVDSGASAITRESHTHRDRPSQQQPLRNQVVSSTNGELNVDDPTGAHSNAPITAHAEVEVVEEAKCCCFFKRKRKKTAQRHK
T13 sequence (Q00536 whole entry): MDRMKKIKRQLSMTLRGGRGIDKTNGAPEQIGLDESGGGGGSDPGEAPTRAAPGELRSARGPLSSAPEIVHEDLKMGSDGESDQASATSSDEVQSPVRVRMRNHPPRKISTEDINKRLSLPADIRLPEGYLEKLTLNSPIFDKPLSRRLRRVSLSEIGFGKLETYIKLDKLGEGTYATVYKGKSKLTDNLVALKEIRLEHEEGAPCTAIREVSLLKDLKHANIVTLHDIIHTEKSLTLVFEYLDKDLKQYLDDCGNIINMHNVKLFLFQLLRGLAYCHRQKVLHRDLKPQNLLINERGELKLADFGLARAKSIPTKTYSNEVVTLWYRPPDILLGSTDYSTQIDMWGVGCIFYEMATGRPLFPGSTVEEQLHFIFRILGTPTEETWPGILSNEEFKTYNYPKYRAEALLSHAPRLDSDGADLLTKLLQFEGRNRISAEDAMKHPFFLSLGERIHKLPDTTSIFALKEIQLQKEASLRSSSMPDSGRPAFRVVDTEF
T2 sequence (P23458 583-855 limits assumed): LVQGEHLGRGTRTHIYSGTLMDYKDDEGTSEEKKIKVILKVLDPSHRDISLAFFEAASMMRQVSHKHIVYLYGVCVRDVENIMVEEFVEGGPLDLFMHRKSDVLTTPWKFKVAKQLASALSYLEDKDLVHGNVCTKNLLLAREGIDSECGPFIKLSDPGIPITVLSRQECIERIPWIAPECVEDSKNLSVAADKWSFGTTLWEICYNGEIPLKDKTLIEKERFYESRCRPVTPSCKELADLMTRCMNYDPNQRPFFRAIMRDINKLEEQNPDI
T5 sequence (O75676 411-674 limits assumed): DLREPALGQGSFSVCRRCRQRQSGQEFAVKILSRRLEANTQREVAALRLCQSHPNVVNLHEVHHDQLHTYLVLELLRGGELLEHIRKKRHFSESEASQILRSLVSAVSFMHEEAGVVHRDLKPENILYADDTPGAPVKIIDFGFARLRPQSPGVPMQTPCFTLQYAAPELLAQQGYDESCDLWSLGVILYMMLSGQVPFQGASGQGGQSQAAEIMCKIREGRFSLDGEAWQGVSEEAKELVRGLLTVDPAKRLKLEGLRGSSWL

CCOP(=O)(CN1CCC(COc2cc3nccc(Oc4ccc(NC(=O)C5(C(=O)Nc6ccc(F)cc6)CC5)cc4F)c3cc2OC)CC1)OCC [Example 10, N1-[4-[[7-[[1-(diethoxyphosphorylmethyl)-4-piperidinyl]methoxyl]-6-methoxyl-4-quinolyl]oxyl]-3-fluorophenyl]-N1′-(4-fluorophenyl)cyclopropane-1,1-dicarboxamide]
% Ctrl@1000 nM [1]: 33 % Ctrl
% Ctrl@1000 nM [2]: 100 % Ctrl
% Ctrl@1000 nM [3]: 100 % Ctrl
% Ctrl@1000 nM [4]: 100 % Ctrl
% Ctrl@1000 nM [5]: 100 % Ctrl
% Ctrl@1000 nM [6]: 75 % Ctrl
% Ctrl@1000 nM [7]: 94 % Ctrl
% Ctrl@1000 nM [8]: 30 % Ctrl
% Ctrl@1000 nM [9]: 74 % Ctrl
% Ctrl@1000 nM [10]: 63 % Ctrl
% Ctrl@1000 nM [11]: 20 % Ctrl
% Ctrl@1000 nM [12]: 100 % Ctrl
% Ctrl@1000 nM [13]: 100 % Ctrl
% Ctrl@1000 nM [14]: 100 % Ctrl
% Ctrl@1000 nM [15]: 100 % Ctrl
% Ctrl@1000 nM [16]: 4.6 % Ctrl
% Ctrl@1000 nM [17]: 94 % Ctrl
% Ctrl@1000 nM [18]: 66 % Ctrl
% Ctrl@1000 nM [19]: 100 % Ctrl
% Ctrl@1000 nM [20]: 75 % Ctrl
% Ctrl@1000 nM [21]: 62 % Ctrl
% Ctrl@1000 nM [22]: 100 % Ctrl
% Ctrl@1000 nM [23]: 3 % Ctrl
% Ctrl@1000 nM [24]: 51 % Ctrl
% Ctrl@1000 nM [25]: 100 % Ctrl
% Ctrl@1000 nM [26]: 100 % Ctrl
% Ctrl@1000 nM [27]: 100 % Ctrl
% Ctrl@1000 nM [28]: 4 % Ctrl
% Ctrl@1000 nM [29]: 100 % Ctrl
% Ctrl@1000 nM [30]: 80 % Ctrl
% Ctrl@1000 nM [31]: 100 % Ctrl
% Ctrl@1000 nM [32]: 100 % Ctrl
% Ctrl@1000 nM [33]: 100 % Ctrl
% Ctrl@1000 nM [34]: 100 % Ctrl
% Ctrl@1000 nM [35]: 100 % Ctrl

— patent US8933230B2, “Phosphorus-containing group-substituted quinoline, its preparation process, medical composition containing the compounds and application” (priority 2011, dated 2015)
